Measurements from BigSolDB 2.1.

C[C@H](CCC(=O)O)[C@H]1CC[C@H]2[C@@H]3CC[C@@H]4C[C@H](O)CC[C@]4(C)[C@H]3C[C@H](O)[C@]12C
solubility (mole fraction)
Settings | in 2-pentanone | in cyclohexanone | in ethyl acetate | in furfural | in gamma-valerolactone | in methyl acetate | in n-butanol | in n-butyl acetate | in n-hexanol | in n-octanol
283.15 K | 0.000911 | 0.00147 | 0.000187 | 0.000227 | 0.000904 | 0.000224 | 0.00134 | 0.000222 | 0.00773 | 0.00898
293.15 K | 0.00145 | 0.00214 | 0.000304 | 0.000293 | 0.00147 | 0.000382 | 0.00159 | 0.000275 | 0.00902 | 0.0116
303.15 K | 0.00198 | 0.00302 | 0.000448 | 0.000478 | 0.00217 | 0.00071 | 0.00189 | 0.000415 | 0.0102 | 0.0135
313.15 K | 0.00286 | 0.00416 | 0.000771 | 0.000599 | 0.00304 | 0.00107 | 0.00246 | 0.000609 | 0.0125 | 0.016
323.15 K | 0.00378 | 0.00567 | 0.0011 | 0.000913 | 0.00509 | 0.0016 | 0.00275 | 0.000875 | 0.0153 | 0.0192
333.15 K | 0.0049 | 0.00744 | 0.00147 | 0.0014 | 0.00757 | – | 0.00315 | 0.00127 | 0.0174 | 0.0232

C[C@H](CCC(=O)O)[C@H]1CC[C@H]2[C@@H]3[C@H](O)C[C@@H]4C[C@H](O)CC[C@]4(C)[C@H]3C[C@H](O)[C@]12C
solubility (mole fraction)
Settings | in 2-pentanone | in cyclohexanone | in ethyl acetate | in furfural | in gamma-valerolactone | in methyl acetate | in n-butanol | in n-butyl acetate | in n-hexanol | in n-octanol
283.15 K | 0.00141 | 0.00753 | 0.000154 | 3.55e-05 | 0.000822 | 7.59e-05 | 0.00219 | 0.000224 | 0.0156 | 0.0154
293.15 K | 0.00164 | 0.00842 | 0.000242 | 7.5e-05 | 0.00154 | 0.000128 | 0.00245 | 0.000284 | 0.0166 | 0.0171
303.15 K | 0.00206 | 0.00952 | 0.000392 | 0.000127 | 0.00258 | 0.000232 | 0.0027 | 0.000378 | 0.0182 | 0.0183
313.15 K | 0.00247 | 0.0106 | 0.000536 | 0.000197 | 0.00412 | 0.000489 | 0.00296 | 0.000492 | 0.0202 | 0.0201
323.15 K | 0.00299 | 0.012 | 0.000713 | 0.000349 | 0.00604 | 0.000811 | 0.00337 | 0.000613 | 0.0223 | 0.0222
333.15 K | 0.00345 | 0.0137 | 0.000942 | 0.000563 | 0.00978 | – | 0.00389 | 0.000765 | 0.0236 | 0.0242
